According to patent US5948884A, “Cyclosporin derivatives with anti-HIV effect” (priority 1995, dated 1999):
Values after ≈ are worked out from the molar mass of the structure shown.

Columns and labels:
[1] = tested on: HIV-1 (strain IIIB); details: MT4 cells infected with HIV-1 IIIB; p24 ELISA on third and fourth days after infection
Method: Test for Antiviral Activity
HIV-1 (strain IIIB) was adsorbed on the cells for 2 hours at 37°. The inoculum was then removed and the infected cells were transferred to tissue culture plates which contained the test compound at different concentrations. In this context, the virus inoculum was chosen such that the concentration of viral p24 antigen increased exponentially in the cell supernatant up to the fourth day after the infection. On the third and fourth days after the infection, the cell supernatants were analyzed by ELISA for p24 antigen. IC50 values were determined by comparing the p24 concentrations in the supernatant from the infected, substance-treated cells and in the supernatant from the untreated infected control cells.

[2] = tested on: HIV; details: relative to the most strongly active substances of EP 484 281; cited from earlier work

Molecule | IC50 (p24 antigen in cell supernatant) [1] [µg/mL] | activity against HIV, times weaker than MeIle-4-cyclosporin or MeVal-4-cyclosporin [2]
C/C=C/C[C@@H](C)[C@@H](O)[C@H]1C(=O)N[C@@H](CC)C(=O)N(C)[C@H](CO)C(=O)N(C)[C@@H](CC(C)(C)O)C(=O)N[C@@H](C(C)C)C(=O)N(C)[C@@H](CC(C)C)C(=O)N[C@@H](C)C(=O)N[C@H](C)C(=O)N(C)[C@@H](CC(C)C)C(=O)N(C)[C@@H](CC(C)C)C(=O)N(C)[C@@H](C(C)C)C(=O)N1C [3-N-methyl-(D)-serine-4-(gamma-hydroxy)-N-methylleucinecyclosporin] | 0.1 (≈ 0.0801 µM) | –
(gamma-hydroxy-N-methylleucine)cyclosporin | – | 5-6 times
